# PubChem BioAssay (NCI)
#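 1) Cells in 96-well plates. 2) Compound, 48 h, 5 concentrations. 3) Linear interpolation between surrounding doses. 4) Unreached endpoint = highest concentration. GI50 is the concentration that inhibits growth by half. TGI is the concentration that stops growth completely.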
# Assays:
# Experiment in all cases: DTP human tumour cell line panel, 48 h
# [1] = tested on: UACC-257 melanoma
# [2] = tested on: MDA-MB-435
# [3] = tested on: HCT-116 colon
# [4] = tested on: HT29 colon
# [5] = tested on: SR leukemia
# [6] = tested on: UO-31 renal
# [7] = tested on: SK-MEL-5 melanoma
# [8] = tested on: PC-3 prostate
# [9] = tested on: HOP-62 NSCLC
# [10] = tested on: SNB-19 CNS
# [11] = tested on: HL-60(TB) leukemia
# [12] = tested on: NCI-H460 lung
# [13] = tested on: MDA-MB-231 breast
# [14] = tested on: HOP-92 NSCLC
# [15] = tested on: COLO 205 colon
# [16] = tested on: SW-620 colon
# [17] = tested on: HCC-2998 colon
# [18] = tested on: ACHN renal
# [19] = tested on: U251 CNS
# [20] = tested on: SK-MEL-2 melanoma
# [21] = tested on: BT-549 breast
# [22] = tested on: EKVX NSCLC
# [23] = tested on: A549 NSCLC
# [24] = tested on: SK-OV-3 ovarian
# [25] = tested on: OVCAR-5 ovarian
# [26] = tested on: DU-145 prostate
# [27] = tested on: MCF7 breast
# [28] = tested on: SK-MEL-28 melanoma
# [29] = tested on: MOLT-4 leukemia
# [30] = tested on: SF-295 CNS
# [31] = tested on: NCI/ADR-RES ovarian
# [32] = tested on: HCT-15 colon
# [33] = tested on: RPMI-8226 leukemia
# [34] = tested on: CCRF-CEM leukemia
# [35] = tested on: NCI-H226 lung
# [36] = tested on: SF-539 CNS
# [37] = tested on: OVCAR-4 ovarian
# [38] = tested on: 786-0 renal
# [39] = tested on: IGROV1 ovarian
# [40] = tested on: T-47D breast
# [41] = tested on: K-562 leukemia
# [42] = tested on: RXF 393 renal
# [43] = tested on: CAKI-1 renal
# [44] = tested on: SN12C renal
# [45] = tested on: OVCAR-8 ovarian
# [46] = tested on: OVCAR-3 ovarian
# [47] = tested on: LOX IMVI melanoma
# [48] = tested on: KM12 colon
# [49] = tested on: UACC-62 melanoma
# [50] = tested on: SNB-75 CNS
# [51] = tested on: TK-10 renal
# [52] = tested on: NCI-H23 lung
# [53] = tested on: M14 melanoma
# [54] = tested on: A498 renal
# [55] = tested on: MALME-3M melanoma
# [56] = tested on: SF-268 CNS
compound,measurement,setting,value
C[C@@H](O)C(=O)N1[C@@H]2CC3CC[C@]2(CS1(=O)=O)C3(C)C,TGI,[1],> 100 µM
same,TGI,[2],> 100 µM
same,TGI,[3],> 100 µM
same,TGI,[4],> 100 µM
same,TGI,[5],58.5 µM
same,TGI,[6],> 100 µM
same,TGI,[7],> 100 µM
same,TGI,[8],> 100 µM
same,TGI,[9],> 100 µM
same,TGI,[10],> 100 µM
same,TGI,[11],> 100 µM
same,TGI,[12],> 100 µM
same,TGI,[13],> 100 µM
same,TGI,[14],> 100 µM
same,TGI,[15],> 100 µM
same,TGI,[16],> 100 µM
same,TGI,[17],> 100 µM
same,TGI,[18],> 100 µM
same,TGI,[19],> 100 µM
same,TGI,[20],> 100 µM
same,TGI,[21],> 100 µM
same,TGI,[22],> 100 µM
same,TGI,[23],> 100 µM
same,TGI,[24],> 100 µM
same,TGI,[25],> 100 µM
same,TGI,[26],> 100 µM
same,TGI,[27],> 100 µM
same,TGI,[28],> 100 µM
same,TGI,[29],> 100 µM
same,TGI,[30],> 100 µM
same,TGI,[31],> 100 µM
same,TGI,[32],> 100 µM
same,TGI,[33],> 100 µM
same,TGI,[34],72.9 µM
same,TGI,[35],65.3 µM
same,TGI,[36],> 100 µM
same,TGI,[37],> 100 µM
same,TGI,[38],> 100 µM
same,TGI,[39],> 100 µM
same,TGI,[40],> 100 µM
same,TGI,[41],> 100 µM
same,TGI,[42],> 100 µM
same,TGI,[43],> 100 µM
same,TGI,[44],> 100 µM
same,TGI,[45],> 100 µM
same,TGI,[46],> 100 µM
same,TGI,[47],> 100 µM
same,TGI,[48],> 100 µM
same,TGI,[49],> 100 µM
same,TGI,[50],> 100 µM
same,TGI,[51],> 100 µM
same,TGI,[52],> 100 µM
same,TGI,[53],> 100 µM
O=C(c1ccc2ccccc2c1)c1c(C(F)(F)F)n([O-])c2cc(F)c(F)cc2[n+]1=O,GI50,[1],2.53 µM
same,TGI,[1],6.45 µM
same,GI50,[2],1.96 µM
same,TGI,[2],4.12 µM
same,GI50,[3],1.5 µM
same,TGI,[3],3.02 µM
same,GI50,[4],2.34 µM
same,TGI,[4],5.29 µM
same,GI50,[5],0.45 µM
same,TGI,[5],3.18 µM
same,GI50,[6],1.02 µM
same,TGI,[6],2.68 µM
same,GI50,[7],4.84 µM
same,TGI,[7],18.3 µM
same,GI50,[8],1.48 µM
same,TGI,[8],2.9 µM
same,GI50,[9],5.02 µM
same,TGI,[9],16.8 µM
same,GI50,[10],2 µM
same,TGI,[10],4.1 µM
same,GI50,[11],1.37 µM
same,TGI,[11],3.55 µM
same,GI50,[12],3.74 µM
same,TGI,[12],88.9 µM
same,GI50,[13],1.86 µM
same,TGI,[13],3.99 µM
same,GI50,[14],1.84 µM
same,TGI,[14],3.46 µM
same,GI50,[54],16 µM
same,TGI,[54],32.1 µM
same,GI50,[17],2.42 µM
same,TGI,[17],7.65 µM
same,GI50,[18],2.03 µM
same,TGI,[18],4.16 µM
same,GI50,[55],1.13 µM
same,TGI,[55],2.65 µM
same,GI50,[20],2.16 µM
same,TGI,[20],5.52 µM
same,GI50,[21],1.89 µM
same,TGI,[21],4.17 µM
same,GI50,[22],2.46 µM
same,TGI,[22],6.43 µM
same,GI50,[23],4.33 µM
same,TGI,[23],16.4 µM
same,GI50,[24],14.5 µM
same,TGI,[24],27.9 µM
same,GI50,[25],2.01 µM
same,TGI,[25],4.4 µM
same,GI50,[26],1.46 µM
same,TGI,[26],4.33 µM
same,GI50,[27],3.11 µM
same,TGI,[27],> 100 µM
same,GI50,[28],4.22 µM
same,TGI,[28],12.7 µM
same,GI50,[29],0.749 µM
same,TGI,[29],2.68 µM
same,GI50,[30],2.02 µM
same,TGI,[30],4.9 µM
same,GI50,[31],2.93 µM
same,TGI,[31],11.2 µM
same,GI50,[32],1.76 µM
same,TGI,[32],4.37 µM
same,GI50,[33],1.12 µM
same,TGI,[33],3.79 µM
same,GI50,[34],1.33 µM
same,TGI,[34],3.63 µM
same,GI50,[35],4.86 µM
same,TGI,[35],44.2 µM
same,GI50,[36],2.21 µM
same,TGI,[36],3.98 µM
same,GI50,[37],13 µM
same,TGI,[37],27.2 µM
same,GI50,[38],1.74 µM
same,TGI,[38],3.23 µM
same,GI50,[56],3.36 µM
same,TGI,[56],19.5 µM
same,GI50,[40],2.67 µM
same,TGI,[40],6.14 µM
same,GI50,[41],0.314 µM
same,TGI,[41],1.44 µM
same,GI50,[42],1.49 µM
same,TGI,[42],2.97 µM
same,GI50,[43],1.82 µM
same,TGI,[43],3.97 µM
same,GI50,[46],1.46 µM
same,TGI,[46],2.98 µM
same,GI50,[48],0.937 µM
same,TGI,[48],8.1 µM
same,GI50,[49],2.75 µM
same,TGI,[49],6.62 µM
same,GI50,[50],4.29 µM
same,TGI,[50],15 µM
same,GI50,[51],1.76 µM
same,TGI,[51],3.41 µM
same,GI50,[52],2.62 µM
same,TGI,[52],9.29 µM
same,GI50,[53],2.53 µM
same,TGI,[53],7.11 µM
